In US8680290B2, “Isoxazoline derivatives and their use as herbicides” (Syngenta Limited, priority 2004, dated 2014):

How the values were obtained:
[1] = system: Monocotyledonous and dicotyledonous test plants; assay: Example B2 herbicidal action, application post-emergence, 96-cell seed trays (Table B2a); assay type: in vivo; conditions: 1000 g/ha
Experimental: Monocotyledonous and dicotyledonous test plants were sown in sterilised standard soil in seed trays each having 96 cells. After one day (pre-emergence) or after 8 to 9 days cultivation (post-emergence) under controlled conditions in a climatic chamber (cultivation at 17/23° C.; 13 hours light; 50-60% humidity; after application at 19/24° C.), the plants were treated with an aqueous spray solution of 1000 mg/l of the active ingredient used (rate of application: […]; incl. 10% DMSO as solvent). The plants were grown on in the climatic chamber until the test was evaluated (10 total damage to plant, 0=no damage to plant) after 9 or 13 days.

[2] = system: Monocotyledonous and dicotyledonous test plants; assay: Example B1 herbicidal action, application post-emergence (Table B1a); assay type: in vivo; conditions: 250 g/ha, evaluated after 3 weeks, scale 0-10
Summary of the method: (§1)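 Compounds sprayed as aqueous solution from acetone/Emulsogen EL/NMP/dipropylene glycol monomethyl ether/X-77 formulation onto soil right after sowing (pre-emergence) or onto 8–9-day plants (post-emergence); greenhouse-grown. Damage scored 0 (none) to 10 (total) after 4 weeks pre- or 3 weeks post-emergence.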

[3] = system: Monocotyledonous and dicotyledonous test plants; assay: Example B1 herbicidal action, application pre-emergence (Table B1b); assay type: in vivo; conditions: 250 g/ha, evaluated after 4 weeks
Summary of the method: as §1

[4] = system: Monocotyledonous and dicotyledonous test plants; assay: Example B2 herbicidal action, application pre-emergence, 96-cell seed trays (Table B2b); assay type: in vivo; conditions: 1000 g/ha
Summary of the method: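 Mono- and dicot plants in sterilised soil, 96-cell trays, sprayed 1 day after sowing (pre-emergence) or after 8–9 days growth (post-emergence) with aqueous 1000 mg/l active ingredient, 10% DMSO; climatic chamber 17/23° C, 13 h light. Damage scored 0–10 after 9 or 13 days.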

melting point | Compound | herbicidal action (damage rating 0-10), Agrostis [1] | herbicidal action (damage rating 0-10), Amaranthus [1] | herbicidal action (damage rating 0-10), Poa [1] | herbicidal action (damage rating 0-10), Setaria [1] | herbicidal damage rating, Abutilon [2] | herbicidal damage rating, Amaranthus [2] | herbicidal damage rating, Digitaria [2] | herbicidal damage rating, Panicum [2] | herbicidal damage rating, Setaria [2] | herbicidal damage rating, Sida [2] | herbicidal action (damage rating 0-10), Amaranthus [3] | herbicidal action (damage rating 0-10), Digitaria [3] | herbicidal action (damage rating 0-10), Panicum [3] | herbicidal action (damage rating 0-10), Setaria [3] | herbicidal action (damage rating 0-10), Sida [3] | herbicidal action (damage rating 0-10), Agrostis [4] | herbicidal action (damage rating 0-10), Digitaria [4] | herbicidal action (damage rating 0-10), Poa [4] | herbicidal action (damage rating 0-10), Setaria [4]
 | CC1(C)CC([S+]([O-])C(Cl)c2c(F)cccc2Cl)=NO1 (single isomer, unassigned) [1.34] | 8 | 5 | 8 | 8 | 3 | 5 | 5 | 8 | 6 | 3 | 9 | 9 | 10 | 10 | 7 |  |  |  | 
 | CC1(C)CC(S(=O)(=O)C(F)c2c(F)cccc2F)=NO1 (stereo not shown) [1.06] | 8 | 8 | 8 | 7 |  |  |  |  |  |  | 10 | 5 | 10 | 9 | 7 | 10 | 10 | 10 | 10
135 °C | CC1(C)CC(S(=O)(=O)C(Br)c2c(F)cccc2F)=NO1 (stereo not shown) [Compound No. 1.19, 3-[bromo-(2,6-difluorophenyl)-methanesulfonyl]-5,5-dimethyl-4,5-dihydroisoxazole] |  |  |  |  | 6 | 5 | 6 | 5 | 5 | 2 | 10 | 10 | 10 | 10 | 6 | 10 | 9 | 10 | 9
 | CC1(C)CC(S(=O)(=O)C(Cl)c2c(F)cccc2Cl)=NO1 (stereo not shown) [1.32] | 8 | 6 | 8 | 6 |  |  |  |  |  |  |  |  |  |  |  |  |  |  | 
 | CC1(C)CC(S(=O)(=O)C(Cl)c2c(F)cccc2F)=NO1 (stereo not shown) [Compound No. 1.07, 3-[chloro-(2,6-difluoro-phenyl)-methanesulfonyl]-5,5-dimethyl-4,5-dihydroisoxazole] | 8 | 7 | 8 | 7 | 5 | 3 | 5 | 7 | 7 | 2 | 8 | 10 | 10 | 10 | 7 | 10 | 10 | 10 | 10
